Results on ten molecules are retold here after PubChem BioAssay AID180 (DTP/NCI, 2004).

The T/C is the result in the treated group divided by that in the control group, in per cent.

This assay concerns BDF1 mice, Adenocarcinoma 755 s.c., tumor weight T/C. The assay is described as follows: NCI In Vivo Anticancer Drug Screen. Data for tumor model Adenocarcinoma 755 (subcutaneous) in B6D2F1 (BDF1) mice. The conditions noted are these: endpoint: mean tumor weight, higher = larger tumour. The gist of the method: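 Tumor-bearing mice receive test compound while controls get vehicle alone. Antitumor effect is scored from survival or tumor dimensions as a T/C quotient.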

Setting [1] is: dose: 15.0 mg/kg/injection, schedule: Q01DX011 (ip), vehicle: methylcellulose (MC).
The mark [2] stands for this setting: dose: 25.0 mg/kg/injection, schedule: Q01DX011 (ip), vehicle: other.
The mark [3] stands for this setting: dose: 125.0 mg/kg/injection, schedule: Q01DX011 (ip), vehicle: carboxymethylcellulose (CMC).
Setting [4] is: dose: 250.0 mg/kg/injection, schedule: Q01DX011 (ip), vehicle: carboxymethylcellulose (CMC).
Where [5] appears, read: dose: 125.0 mg/kg/injection, schedule: Q01DX011 (ip), vehicle: methylcellulose (MC).
Setting [6] is: dose: 31.0 mg/kg/injection, schedule: Q01DX011 (ip), vehicle: methylcellulose (MC).
[7] abbreviates: dose: 62.0 mg/kg/injection, schedule: Q01DX011 (ip), vehicle: methylcellulose (MC).

Where “and” joins values, the source holds several entries; their conditions need not be identical. Identical values can stand only once.

For the molecule `O=C(Nc1ccc(C2=NCCN2)cc1)c1cc(Cl)c(C(=O)Nc2ccc(C3=NCCN3)cc2)cc1Cl`, the T/C was 105 % of control under setting [1] and 68 % of control (dose: 30.0 mg/kg/injection, schedule: Q01DX011 (ip), vehicle: methylcellulose (MC)).

For the molecule `CN(C)N=Nc1ccc(C(=O)NN)cc1`, the T/C was 31 % of control (dose: 75.0 mg/kg/injection, schedule: Q01DX011 (ip), vehicle: carboxymethylcellulose (CMC)) and 15 % of control (dose: 100.0 mg/kg/injection, schedule: Q01DX011 (ip), vehicle: carboxymethylcellulose (CMC)).

In the case of `Nc1ncnc2c1ncn2CCO`, the T/C (dose: 25.0 mg/kg/injection, schedule: Q01DX011 (ip), vehicle: methylcellulose (MC)) is 52 % of control; the T/C (dose: 50.0 mg/kg/injection, schedule: Q01DX011 (ip), vehicle: methylcellulose (MC)) is 76 % of control; the T/C (dose: 100.0 mg/kg/injection, schedule: Q01DX011 (ip), vehicle: methylcellulose (MC)) was 67 % of control.

Take `O=C(O)C(=O)O.[U]`: the T/C reads like this: (dose: 12.5 mg/kg/injection, schedule: Q01DX011 (ip), vehicle: other) 73 % of control; (dose: 12.5 mg/kg/injection, schedule: Q01DX011 (ip), vehicle: saline) 68 % of control; under setting [2], 50 % of control; (dose: 25.0 mg/kg/injection, schedule: Q01DX011 (ip), vehicle: saline) 39 % of control; (dose: 50.0 mg/kg/injection, schedule: Q01DX011 (ip), vehicle: other) 49 % of control; (dose: 50.0 mg/kg/injection, schedule: Q01DX011 (ip), vehicle: saline) 36 % of control. Moreover, the T/C (dose: 100.0 mg/kg/injection, schedule: Q01DX011 (ip), vehicle: saline) is 25 % of control.

Regarding `S=c1nc[nH]c2c1ncn2C1CCCCC1`, the T/C by setting is: (dose: 62.0 mg/kg/injection, schedule: Q01DX011 (ip), vehicle: carboxymethylcellulose (CMC)) 117 % of control; under setting [3], 118 % of control; (dose: 188.0 mg/kg/injection, schedule: Q01DX011 (oral), vehicle: carboxymethylcellulose (CMC)) 154 % of control; under setting [4], 66 % of control; (dose: 376.0 mg/kg/injection, schedule: Q01DX011 (oral), vehicle: carboxymethylcellulose (CMC)) 104 % of control; (dose: 500.0 mg/kg/injection, schedule: Q01DX011 (ip), vehicle: carboxymethylcellulose (CMC)) 62 % of control. Further, the T/C (dose: 752.0 mg/kg/injection, schedule: Q01DX011 (oral), vehicle: carboxymethylcellulose (CMC)) is 87 % of control.

Regarding `CN(C)c1nc(N(C)C)nc(N(C)C)n1`, the T/C by setting is: (dose: 4.75 mg/kg/injection, schedule: Q01DX011 (ip), vehicle: other) 121 % of control; (dose: 9.5 mg/kg/injection, schedule: Q01DX011 (ip), vehicle: other) 67 % of control; (dose: 10.88 mg/kg/injection, schedule: Q01DX011 (ip), vehicle: other) 95 % of control; (dose: 10.9 mg/kg/injection, schedule: Q01DX011 (ip), vehicle: other) 95 % of control; (dose: 11.25 mg/kg/injection, schedule: Q01DX011 (iv), vehicle: other) 108 % of control; (dose: 13.85 mg/kg/injection, schedule: Q01DX011 (ip), vehicle: carboxymethylcellulose (CMC)) 87 % of control. Further, the T/C runs as follows: (dose: 13.85 mg/kg/injection, schedule: Q01DX011 (ip), vehicle: other) 104 % of control; (dose: 14.13 mg/kg/injection, schedule: Q01DX011 (ip), vehicle: other) 117 % of control; (dose: 15.6 mg/kg/injection, schedule: Q01DX011 (oral), vehicle: other) 77 % of control; (dose: 15.6 mg/kg/injection, schedule: Q01DX011 (oral), vehicle: saline) 88 % of control; (dose: 19.0 mg/kg/injection, schedule: Q01DX011 (ip), vehicle: other) 53 % of control; (dose: 21.75 mg/kg/injection, schedule: Q01DX011 (ip), vehicle: other) 55 % of control and 73 % of control. The T/C is 67 % of control (dose: 22.5 mg/kg/injection, schedule: Q01DX011 (iv), vehicle: other); 59 % of control under setting [2]; 161 % of control (dose: 27.7 mg/kg/injection, schedule: Q01DX011 (ip), vehicle: carboxymethylcellulose (CMC)); 56 % of control (dose: 27.7 mg/kg/injection, schedule: Q01DX011 (ip), vehicle: other); 53 % of control (dose: 30.37 mg/kg/injection, schedule: Q01DX011 (ip), vehicle: carboxymethylcellulose (CMC)); 118 % of control (dose: 31.25 mg/kg/injection, schedule: Q01DX011 (ip), vehicle: carboxymethylcellulose (CMC)). Further, the T/C by setting is: (dose: 31.25 mg/kg/injection, schedule: Q01DX011 (ip), vehicle: methylcellulose (MC)) 91 % of control; (dose: 31.25 mg/kg/injection, schedule: Q01DX011 (iv), vehicle: other) 80 % of control and 85 % of control; (dose: 31.3 mg/kg/injection, schedule: Q01DX011 (oral), vehicle: other) 101 % of control; (dose: 31.3 mg/kg/injection, schedule: Q01DX011 (oral), vehicle: saline) 75 % of control; (dose: 34.8 mg/kg/injection, schedule: Q01DX011 (ip), vehicle: carboxymethylcellulose (CMC)) 50 % of control; (dose: 43.5 mg/kg/injection, schedule: Q01DX011 (ip), vehicle: carboxymethylcellulose (CMC)) 47 % of control. Further, the T/C runs as follows: (dose: 43.5 mg/kg/injection, schedule: Q01DX011 (ip), vehicle: other) 109 % of control; (dose: 45.0 mg/kg/injection, schedule: Q01DX011 (iv), vehicle: other) 89 % of control; (dose: 55.4 mg/kg/injection, schedule: Q01DX011 (ip), vehicle: carboxymethylcellulose (CMC)) 96 % of control; (dose: 55.4 mg/kg/injection, schedule: Q01DX011 (ip), vehicle: other) 45 % of control; (dose: 56.5 mg/kg/injection, schedule: Q01DX011 (ip), vehicle: other) 54 % of control; (dose: 58.0 mg/kg/injection, schedule: Q01DX011 (ip), vehicle: carboxymethylcellulose (CMC)) 29 % of control. For the same molecule, the T/C (dose: 60.75 mg/kg/injection, schedule: Q01DX011 (ip), vehicle: carboxymethylcellulose (CMC)) was 78 % of control; the T/C (dose: 62.5 mg/kg/injection, schedule: Q01DX011 (ip), vehicle: carboxymethylcellulose (CMC)) was 88 % of control; the T/C (dose: 62.5 mg/kg/injection, schedule: Q01DX011 (ip), vehicle: methylcellulose (MC)) was 82 % of control; the T/C (dose: 62.5 mg/kg/injection, schedule: Q01DX011 (iv), vehicle: other) was 51 % of control and 57 % of control; the T/C (dose: 62.5 mg/kg/injection, schedule: Q01DX011 (oral), vehicle: other) is 74 % of control; the T/C (dose: 62.5 mg/kg/injection, schedule: Q01DX011 (oral), vehicle: saline) was 105 % of control. The T/C runs as follows: (dose: 87.0 mg/kg/injection, schedule: Q01DX011 (ip), vehicle: carboxymethylcellulose (CMC)) 11 % of control; (dose: 87.0 mg/kg/injection, schedule: Q01DX011 (ip), vehicle: other) 14 % of control; (dose: 121.5 mg/kg/injection, schedule: Q01DX011 (ip), vehicle: carboxymethylcellulose (CMC)) 48 % of control; under setting [3], 43 % of control; under setting [5], 34 % of control; (dose: 125.0 mg/kg/injection, schedule: Q01DX011 (iv), vehicle: other) 8 % of control. The T/C is, setting by setting: (dose: 125.0 mg/kg/injection, schedule: Q01DX011 (oral), vehicle: other) 54 % of control; (dose: 125.0 mg/kg/injection, schedule: Q01DX011 (oral), vehicle: saline) 106 % of control; under setting [4], 36 % of control; (dose: 250.0 mg/kg/injection, schedule: Q01DX011 (oral), vehicle: saline) 40 % of control.

Regarding `O=c1[nH]cc(Br)c(=S)[nH]1`, the T/C reads like this: under setting [1], 64 % of control; under setting [6], 86 % of control; under setting [7], 80 % of control; under setting [5], 119 % of control; (dose: 250.0 mg/kg/injection, schedule: Q01DX011 (ip), vehicle: methylcellulose (MC)) 109 % of control.

Turning to `Nc1nc(Cl)c2[nH]cnc2n1`, the T/C reads like this: under setting [6], 60 % of control; under setting [7], 13 % of control; under setting [5], 4 % of control.

On to `CC(CNC(=O)CCBr)CNC(=O)CCBr`, for which the T/C (dose: 113.0 mg/kg/injection, schedule: Q01DX011 (ip), vehicle: carboxymethylcellulose (CMC)) is 51 % of control.

With `CSc1nc(S(C)(=O)=O)ncc1C`, the T/C under setting [1] is 86 % of control, the T/C under setting [6] was 94 % of control and the T/C under setting [7] was 154 % of control.
